These results are taken from ChEMBL document CHEMBL4152191, “New potent and selective A1 adenosine receptor antagonists as potential tools for the treatment of gastrointestinal diseases” (Eur J Med Chem, 2018).

For orientation: Ki means a measure of affinity in units of concentration, obtained from inhibition or displacement.

Experiment [1] is filed under the species Homo sapiens. As to the kind of experiment: Selectivity index, ratio of Ki for recombinant human adenosine A2B receptor to Ki for recombinant human adenosine A1 receptor.
The target in another experiment is T1, Adenosine receptor A1 (Homo sapiens, UniProt P30542).
T1 sequence (P30542 whole entry): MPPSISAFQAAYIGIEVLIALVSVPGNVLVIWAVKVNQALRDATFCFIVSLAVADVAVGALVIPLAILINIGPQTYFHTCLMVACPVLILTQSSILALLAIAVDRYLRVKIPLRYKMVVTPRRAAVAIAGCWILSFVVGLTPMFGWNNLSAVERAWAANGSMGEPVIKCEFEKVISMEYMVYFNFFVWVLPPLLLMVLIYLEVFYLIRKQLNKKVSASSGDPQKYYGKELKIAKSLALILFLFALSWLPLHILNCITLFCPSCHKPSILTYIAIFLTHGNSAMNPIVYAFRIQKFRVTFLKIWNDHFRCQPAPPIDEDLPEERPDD
As to the kind of experiment: Displacement of [3H]CCPA from recombinant human adenosine A1 receptor transfected in CHO cell membranes after 3 hrs by microbeta scintillation counting analysis. For orientation: Displacement assays read how much labelled ligand stays bound in the presence of the test substance.

Experiment [2] is filed under the species Homo sapiens. As to the kind of experiment: Selectivity index, ratio of Ki for recombinant human adenosine A2A receptor to Ki for recombinant human adenosine A1 receptor.
Another experiment deals with T2, Adenosine receptor A2b (Homo sapiens, UniProt P29275).
T2 sequence (P29275 whole entry): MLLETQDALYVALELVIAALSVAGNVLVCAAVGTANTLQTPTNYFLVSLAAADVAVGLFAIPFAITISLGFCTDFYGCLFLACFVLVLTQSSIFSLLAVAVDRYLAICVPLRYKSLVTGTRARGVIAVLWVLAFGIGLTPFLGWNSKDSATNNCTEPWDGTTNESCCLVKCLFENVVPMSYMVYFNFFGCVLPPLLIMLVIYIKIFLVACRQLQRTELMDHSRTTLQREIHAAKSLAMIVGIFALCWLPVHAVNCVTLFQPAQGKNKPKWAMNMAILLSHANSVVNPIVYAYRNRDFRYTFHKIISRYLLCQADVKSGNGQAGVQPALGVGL
Nature of the experiment: Antagonist activity at recombinant human adenosine A2B receptor expressed in CHO cells assessed as inhibition of NECA-induced adenylyl cyclase activity after 20 mins by [alpha-32P]ATP assay. Type of experiment: functional, cell-based.

In a further experiment the target is T3, Adenosine receptor A3 (Homo sapiens, UniProt P0DMS8).
T3 sequence (P0DMS8 whole entry): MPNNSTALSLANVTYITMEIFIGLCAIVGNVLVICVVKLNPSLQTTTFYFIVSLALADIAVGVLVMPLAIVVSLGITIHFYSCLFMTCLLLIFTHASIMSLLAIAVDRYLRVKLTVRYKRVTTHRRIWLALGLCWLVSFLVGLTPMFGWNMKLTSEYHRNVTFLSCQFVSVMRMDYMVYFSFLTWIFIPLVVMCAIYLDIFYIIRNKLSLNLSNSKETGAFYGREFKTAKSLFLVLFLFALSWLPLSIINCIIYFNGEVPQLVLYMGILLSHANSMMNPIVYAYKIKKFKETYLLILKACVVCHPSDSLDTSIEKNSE
As to the kind of experiment: Displacement of [3H]NECA from recombinant human adenosine A3 receptor transfected in CHO cell membranes after 3 hrs by microbeta scintillation counting analysis.

For a further experiment, the target named is Adenosine receptor A2a (Homo sapiens, UniProt P29274). As to the kind of experiment: Displacement of [3H]NECA from recombinant human adenosine A2A receptor transfected in CHO cell membranes after 3 hrs by microbeta scintillation counting analysis.
Chain of Adenosine receptor A2a (P29274 whole entry): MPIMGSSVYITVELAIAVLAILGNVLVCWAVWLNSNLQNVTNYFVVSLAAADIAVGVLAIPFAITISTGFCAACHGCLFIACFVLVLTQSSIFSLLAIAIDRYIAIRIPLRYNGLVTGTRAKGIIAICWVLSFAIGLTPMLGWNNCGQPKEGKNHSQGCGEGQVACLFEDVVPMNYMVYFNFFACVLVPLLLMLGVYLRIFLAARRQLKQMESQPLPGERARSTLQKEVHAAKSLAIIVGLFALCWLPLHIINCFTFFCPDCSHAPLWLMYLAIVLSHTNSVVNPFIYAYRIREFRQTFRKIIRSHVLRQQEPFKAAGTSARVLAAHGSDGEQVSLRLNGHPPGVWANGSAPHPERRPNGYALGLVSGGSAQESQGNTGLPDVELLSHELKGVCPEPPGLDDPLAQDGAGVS
Experiment [3] deals with Adenosine receptors; A1 & A3 (Homo sapiens) (UniProt P30542+P0DMS8). As to the kind of experiment: Selectivity index, ratio of Ki for recombinant human adenosine A3 receptor to Ki for recombinant human adenosine A1 receptor.

The structures appear in SMILES notation. Where only a bound is given, the exact number is not on record here.

For `CCCn1c(-c2ccccc2)nc2c(NC3CCCCC3)ncnc21`, the Ratio Ki in the experiment filed under Homo sapiens [1] amounted to 197; in the experiment listed under Homo sapiens [2], 39; in experiment [3] it was 87. Moreover, the Ki at Adenosine receptor A1 amounted to 27 nM; at Adenosine receptor A2b, 5310 nM; at Adenosine receptor A3, 2360 nM; at Adenosine receptor A2a, 1060 nM.

In the case of `Cn1c(-c2ccccc2Cl)nc2c(NC3CCCC3)ncnc21`, the Ratio Ki in the experiment filed under Homo sapiens [1] was > 811; in the experiment listed under Homo sapiens [2], 83; in experiment [3] it was 19. For the same molecule, the Ki on Adenosine receptor A1 is 37 nM; on Adenosine receptor A2b it was > 30000 nM; at Adenosine receptor A3, 720 nM; at Adenosine receptor A2a, 3080 nM.

For the molecule `Cn1c(-c2ccccc2)nc2c(NC3CCC3)ncnc21`, the Ratio Ki stood at 1170 in the experiment filed under Homo sapiens [1], 95 in the experiment filed under Homo sapiens [2] and 88 in experiment [3]. In addition, the Ki on Adenosine receptor A1 was 3.2 nM; on Adenosine receptor A2b, 3730 nM; on Adenosine receptor A3 it was 280 nM; at Adenosine receptor A2a it was 303 nM.

Take `Cn1c(-c2cccnc2)nc2c(NC3CCCC3)ncnc21`: the Ratio Ki in the experiment filed under Homo sapiens [1] is > 124; in the experiment listed under Homo sapiens [2] it was 26; in experiment [3], 45. The inhibition constant Ki is 242 nM on Adenosine receptor A1, > 30000 nM at Adenosine receptor A2b, 11000 nM at Adenosine receptor A3 and 6330 nM on Adenosine receptor A2a.

Regarding `CCCn1c(-c2ccccc2)nc2c(NC3CCCC3)ncnc21`, the Ratio Ki in the experiment listed under Homo sapiens [1] was 343; in the experiment listed under Homo sapiens [2] it was 63; in experiment [3], 75. Also, the Ki at Adenosine receptor A1 came to 10 nM; on Adenosine receptor A2b it was 3430 nM; at Adenosine receptor A3 it was 749 nM; at Adenosine receptor A2a, 634 nM.

With `CCCn1c(-c2ccccc2)nc2c(NC3CCC3)ncnc21`, the Ratio Ki was determined as 52 in the experiment listed under Homo sapiens [1], 24 in the experiment filed under Homo sapiens [2] and 18 in experiment [3]. Besides, the inhibition constant Ki turned out to be 15 nM at Adenosine receptor A1, 774 nM on Adenosine receptor A2b, 264 nM at Adenosine receptor A3 and 365 nM at Adenosine receptor A2a.

Turning to `Cn1c(-c2ccccc2)nc2c(N)ncnc21`, the Ratio Ki in the experiment filed under Homo sapiens [1] is 339; in the experiment listed under Homo sapiens [2], 17; in experiment [3], 609. For the same molecule, the Ki on Adenosine receptor A1 turned out to be 23 nM; on Adenosine receptor A2b, 7790 nM; on Adenosine receptor A3 it was 14000 nM; at Adenosine receptor A2a, 381 nM.

Consider `COc1ccc(-c2nc3c(NC4CCCC4)ncnc3n2C)cc1`, for which the values for the Ratio Ki (in the experiment listed under Homo sapiens [1]; in the experiment listed under Homo sapiens [2]; in experiment [3]) were > 400, 24 and 25, respectively. The Ki was 75 nM on Adenosine receptor A1, > 30000 nM on Adenosine receptor A2b, 1850 nM on Adenosine receptor A3 and 1790 nM at Adenosine receptor A2a.

On to `Cc1ccccc1-c1nc2c(NC3CCCC3)ncnc2n1C`, for which the Ratio Ki in the experiment listed under Homo sapiens [1] is > 545; in the experiment listed under Homo sapiens [2], 127; in experiment [3], 55. Further, the Ki on Adenosine receptor A1 is 55 nM; at Adenosine receptor A2b, > 30000 nM; on Adenosine receptor A3 it was 3000 nM; at Adenosine receptor A2a, 6980 nM.

For the molecule `Cn1c(-c2cccc(Cl)c2)nc2c(NC3CCCC3)ncnc21`, the Ratio Ki stood at 389 in the experiment filed under Homo sapiens [1], 41 in the experiment filed under Homo sapiens [2] and 79 in experiment [3]. Moreover, the Ki on Adenosine receptor A1 was 6.5 nM; on Adenosine receptor A2b, 2530 nM; at Adenosine receptor A3, 514 nM; at Adenosine receptor A2a, 267 nM.

For the molecule `CCn1c(-c2ccccc2)nc2c(NC3CCCC3)ncnc21`, the figures for the Ratio Ki (in the experiment filed under Homo sapiens [1]; in the experiment listed under Homo sapiens [2]; in experiment [3]) were 1480, 86 and 91, respectively. Further, the inhibition constant Ki turned out to be 3.9 nM on Adenosine receptor A1, 5790 nM on Adenosine receptor A2b, 354 nM at Adenosine receptor A3 and 334 nM on Adenosine receptor A2a.

As to `Cn1c(-c2ccccc2)nc2c(NC3CCOC3)ncnc21` (configuration not stated), the Ratio Ki is 1660 in the experiment filed under Homo sapiens [1], 229 in the experiment filed under Homo sapiens [2] and 783 in experiment [3]. Besides, the Ki at Adenosine receptor A1 is 8 nM; at Adenosine receptor A2b it was 13300 nM; at Adenosine receptor A3 it was 6260 nM; on Adenosine receptor A2a it was 1830 nM.

For the molecule `CCn1c(-c2ccccc2)nc2c(NC3CCC3)ncnc21`, the Ratio Ki in the experiment filed under Homo sapiens [1] amounted to 240; in the experiment filed under Homo sapiens [2] it was 63; in experiment [3], 14. For the same molecule, the Ki at Adenosine receptor A1 came to 6 nM; on Adenosine receptor A2b, 1440 nM; on Adenosine receptor A3 it was 84 nM; at Adenosine receptor A2a it was 379 nM.

As for `CCCn1c(-c2ccccc2)nc2c(N)ncnc21`, the Ratio Ki in the experiment listed under Homo sapiens [1] amounted to 10; in the experiment listed under Homo sapiens [2], 5; in experiment [3], 92. The Ki was found to be 101 nM at Adenosine receptor A1, 1040 nM on Adenosine receptor A2b, 9280 nM on Adenosine receptor A3 and 492 nM on Adenosine receptor A2a.

On to `CCn1c(-c2ccccc2)nc2c(NC3CCCCC3)ncnc21`, for which the Ratio Ki was determined as 902 in the experiment filed under Homo sapiens [1], 31 in the experiment filed under Homo sapiens [2] and 71 in experiment [3]. The Ki on Adenosine receptor A1 was 10 nM; at Adenosine receptor A2b, 9020 nM; on Adenosine receptor A3, 707 nM; on Adenosine receptor A2a, 307 nM.

As to `Cn1c(-c2ccc(C(=O)O)cc2)nc2c(NC3CCCC3)ncnc21`, the Ratio Ki in the experiment listed under Homo sapiens [1] was > 0.6; in the experiment listed under Homo sapiens [2], > 1.9; in experiment [3] it was 0.5. In addition, the Ki was 54000 nM on Adenosine receptor A1, > 30000 nM at Adenosine receptor A2b, 25700 nM on Adenosine receptor A3 and > 100000 nM at Adenosine receptor A2a.

Take `CCCn1c(-c2ccccc2)nc2c(NC3CCOC3)ncnc21` (configuration not stated): the Ratio Ki worked out at 363 in the experiment filed under Homo sapiens [1], 68 in the experiment listed under Homo sapiens [2] and 112 in experiment [3]. The Ki on Adenosine receptor A1 worked out at 25 nM; at Adenosine receptor A2b, 9080 nM; at Adenosine receptor A3, 2810 nM; on Adenosine receptor A2a it was 1700 nM.

Consider `Cn1c(-c2ccc(Cl)cc2)nc2c(NC3CCCC3)ncnc21`, for which the values for the Ratio Ki (in the experiment listed under Homo sapiens [1]; in the experiment filed under Homo sapiens [2]; in experiment [3]) were > 1670, 101 and 67, respectively. The Ki on Adenosine receptor A1 was 18 nM; on Adenosine receptor A2b it was > 30000 nM; at Adenosine receptor A3, 1210 nM; on Adenosine receptor A2a, 1820 nM.

As for `Cn1c(-c2ccccc2)nc2c(NC3CCCCC3)ncnc21`, the Ratio Ki in the experiment listed under Homo sapiens [1] is > 5260; in the experiment filed under Homo sapiens [2], 92; in experiment [3], 416. For the same molecule, the Ki is 5.7 nM at Adenosine receptor A1, > 30000 nM at Adenosine receptor A2b, 2370 nM at Adenosine receptor A3 and 527 nM at Adenosine receptor A2a.

On to `CCn1c(-c2ccccc2)nc2c(NC3CCOC3)ncnc21` (configuration not stated), for which the Ratio Ki in the experiment filed under Homo sapiens [1] stood at 1150; in the experiment filed under Homo sapiens [2] it was 102; in experiment [3] it was 166. For the same molecule, the Ki on Adenosine receptor A1 came out at 10 nM; on Adenosine receptor A2b it was 11500 nM; at Adenosine receptor A3 it was 1660 nM; at Adenosine receptor A2a, 1020 nM.

For `CCn1c(-c2ccccc2)nc2c(N)ncnc21`, the Ratio Ki was found to be 97 in the experiment filed under Homo sapiens [1], 7 in the experiment filed under Homo sapiens [2] and 186 in experiment [3]. Further, the Ki on Adenosine receptor A1 stood at 31 nM; on Adenosine receptor A2b, 3020 nM; at Adenosine receptor A3, 5780 nM; on Adenosine receptor A2a it was 212 nM.
